In US5089516A, “1-phenyl-3,5-pyrazolidinedione hydroxystyrene compounds which have tyrosine kinase inhibiting activity” (Kanegafuchi Kagaku Kogyo Kabushiki Kaisha, priority 1987, dated 1992):
≈ marks a conversion by molar mass, not a printed value.

Tested on: passive cutaneous anaphylaxis (PCA) reaction
Experiment: Inhibitory activity against homologous PCA reaction in rats
Assay type: in vivo, male Wistar rats
Details: Rattus norvegicus, 100 mg/kg, oral, 1 hour before antigen, read-out: Inhibition rate (PCA reaction)
Protocol: (1) Inhibitory activity against homologous PCA reaction in rats
Antiserum was prepared according to I. Mota [Immunology, 7, 681(1964)]and the PCA reaction was conducted according to Maruyama et al. [Folia Pharmacologica Japonica, 74, 179(1978}].
An ovalbumin solution dissolved in physiological saline (2 mg/ml) was injected intramuscularly into both thighs of male Wistar rats weighing 200 to 260 g in a volume of 0.5 ml/100 g body weight, and pertussis vaccine (Bordetella pertussis, 2×10^10 /ml/ Chiba Serum Institute) was intraperitoneally administered at 1 ml/rat. Twelve days after sensitization, blood was taken from posterior aorta under ether anesthesia and serum was separated and stored at -80° C.
In each group, 4 male Wistar rats weighing 180 to 210 g were used. Back of the rats was shaved and reach 0.05 ml of antiserum diluted 32 times with physiological saline was injected intradermally at four sites on the back. After 48 hours, 1 ml of a mixture of ovalbumin (2 mg/ml) as an antigen and Evans blue (10 mg/ml) in the volume ratio of 1 : 1, which was dissolved in physiological saline was injected intravenously into the tail. Thirty minutes later, the rats were bled to death under ether anesthesia and the back skin of the rats was removed. The blue-dyed area formed by pigment exudation was measured and an inhibition rate (%) was calculated as compared with control according to the following equation. [formula]
A test compound suspended in a 2.5 % aqueous solution of gum arabic containing 0.2 % Tween 80 was administered orally in a volume of 0.5 m:/100 g body weight 1 hour before the injection of antigen. To the control group, only the vehicle was administered. Tranilast which was a positive control compound was administered orally 30 minutes before the injection of antigen.

Structure (SMILES)	inhibition in vivo at 100 mg/kg
CC(C)c1cc(C=C2SC(NCc3ccccc3)=NC2=O)cc(C(C)C)c1O [Compound 33]	50%
CC(C)c1cc(C=C2SC(NCc3ccc(F)cc3)=NC2=O)cc(C(C)C)c1O [Compound 35]	43%
CC(C)c1cc(C=C2SC(NCc3ccc(Cl)c(Cl)c3)=NC2=O)cc(C(C)C)c1O [Compound 37]	21%
Cc1ccc(CNC2=NC(=O)C(=Cc3cc(C(C)C)c(O)c(C(C)C)c3)S2)cc1 [Compound 39]	65%
CC(C)c1cc(C=C2SC(NCc3ccc(S(N)(=O)=O)cc3)=NC2=O)cc(C(C)C)c1O [Compound 41]	25%

Tested on: Micrococcus luteus IFO 13867
Experiment: Antibacterial activity (MIC) against Micrococcus luteus IFO 13867
Assay type: cell-based
Details: IFO13867, 37° C., 18 to 20 hours
Protocol: The antibacterial activity against Gram-positive bacteria of the compound of the present invention was measured according to a standard method of Nippon Kagaku Ryoho Gakkai [Nippon Kagaku Ryoho Gakkaishi (Journal of the Chemical therapy of Japan), 29, 76(1981)].
As for gram-positive bacteria, after cultivation in Meuller Hinton broth medium (made by Difco Co., Ltd.), there was prepared a bacterial suspension for inoculation containing about 10^6 of the bacteria per 1 ml of the Meuller Hinton broth medium. On the other hand, the test compound was added to Mueller Hinton agar medium (made by Difco Co., Ltd.) so as to give agar plate medium containing test samples which are twofold serial diluted. Then, the above-mentioned bacterial suspension for inoculation was streaked to each agar medium for about 2 cm with a looped nichrome wire (inner diameter: about 1 mm).
After that the each agar plate medium was cultured at 37° C. for 18 to 20 hours, the growth of the test bacteria was determined.

Structure (SMILES)	MIC
O=C1NC(=S)SC1=Cc1cc(Cc2ccccc2)c(O)c(Cc2ccccc2)c1 [Compound 2]	≤ 6 µg/mL
O=C1Nc2ccccc2C1=Cc1cc(O)c(O)c(CSc2ccccc2)c1 [Compound 11]	12 µg/mL (≈ 32 µM)
O=C1NN(c2ccccc2)C(=O)C1=Cc1cc(Cc2ccccc2)c(O)c(Cc2ccccc2)c1 [Compound 20]	≤ 50 µg/mL
